According to article PMC7413308 (ARKIVOC : free online journal of organic chemistry, 2018):
Where “and” joins values, the source holds several entries; their conditions need not be identical. Equal entries are not always repeated.

Columns and labels:
HEPG2 (liver) cell line = assay: In vitro cytotoxicity, cell viability; assay type: cell-based; conditions: 48 h incubation, Cell-Titer Glo cell viability
[1] = In vitro microsomal stability of analogs; assay type: in vitro ADME, human; conditions: for half-life / remaining at 2 h / remaining at 1 h: human, liver microsomes; for remaining at 2 h / remaining at 1 h: Microsomal stability (HLM) % remaining
[2] = In vitro microsomal stability of analogs; assay type: in vitro ADME, mouse; conditions: for half-life / remaining at 1 h / remaining at 2 h: mouse, liver microsomes; for remaining at 1 h / remaining at 2 h: Microsomal stability (MLM) % remaining
[3] = tested on: HEK293 (kidney) cell line; assay: In vitro cytotoxicity, cell viability; assay type: cell-based; conditions: 48 h incubation, Cell-Titer Glo cell viability
mice = assay: Sensorimotor coordination on rotating rod after oral gavage; assay type: in vivo; conditions: oral gavage 40 mg/kg, rotating rod max 3 minutes, three time-points
[4] = footnote d: assessed at 1-hour incubation time
[5] = footnote a: compound not detected after 10 minutes

SMILES	HEPG2 LD50 (HEPG2 (liver) cell line) [µM]	half-life [1] [h]	remaining at 2 h ([1]; after 2 hr) [%]	half-life [2] [h]	HEK293 LD50 [3]	remaining at 2 h ([2]; after 2 hr) [%]	further results
C#Cc1ccc2c(c1)C(c1ccccc1F)=N[C@@H](C)c1c(C(=O)O)ncn1-2 [compound 6, (S)-8-Ethynyl-6-(2-fluorophenyl)-4-methyl-4H-benzo[f]imidazo[1,5-a][1,4]diazepine-3-carboxylic acid]	>400	5.97 ± 0.933	74 ± 0.4	2.32 ± 0.183	>400 µM		remaining at 1 h [2, 4]: 54 ± 0.3%
C#Cc1ccc2c(c1)C(c1ccccc1F)=N[C@@H](C)c1c(C(=O)SCC)ncn1-2 [compound 7, (S)-S-Ethyl-8-ethynyl-6-(2-fluorophenyl)-4-methyl-4H-benzo[f]imidazo[1,5-a][1,4]diazepine-3-carbothioate]	30.2 ± 9.7				20.5 ± 4.7 µM		Microsomal stability (HLM) % remaining ([1]; after 2 hr): 28.0 ± 0.3%; Microsomal stability (HLM) Half-life ([1]; after 2 hr): 101 ± 19 min; Microsomal stability (MLM) % remaining ([2]; after 2 hr): 9.0 ± 0.5%; Microsomal stability (MLM) Half-life ([2]; after 2 hr): 46 ± 6 min
C#Cc1ccc2c(c1)C(c1ccccc1F)=N[C@@H](C)c1c(-c3nc(CC)no3)ncn1-2 [9b, (S)-3-Ethyl-5-(8-ethynyl-6-(2-fluorophenyl)-4-methyl-4H-benzo[f]imidazo[1,5-a][1,4]diazepin-3-yl)-1,2,4-oxadiazole]	35.1 ± 3.7	9.38 ± 2.05	80 ± 0.4	3.55 ± 0.283	46.9 ± 6.6 µM	63 ± 0.3	Effect on sensorimotor coordination (motor impairment, sedation/ataxia) (mice): exhibited no sensorimotor impairment
CCOC(=O)c1ncn2c1[C@H](C)N=C(c1ccccc1F)c1cc(C3CC3)ccc1-2 [compound 3, (S)-Ethyl-8-cyclopropyl-6-(2-fluorophenyl)-4-methyl-4H-benzo[f]imidazo[1,5-a][1,4]diazepine-3-carboxylate]	87.0 ± 6.6	< 0.0833		0.767 ± 0.05	58.0 ± 6.0 µM	16 ± 0.4	
C#Cc1ccc2c(c1)C(c1ccccc1F)=N[C@@H](C)c1c(C(=O)OC(C)(C)C)ncn1-2 [5d, (S)-tert-Butyl-8-ethynyl-6-(2-fluorophenyl)-4-methyl-4H-benzo[f]imidazo[1,5-a][1,4]diazepine-3-carboxylate]	21.4 ± 1.9	8.57 ± 1.92		3.27 ± 0.333			remaining at 1 h [1, 4]: 89 ± 0.2%; remaining at 1 h [2, 4]: 78 ± 0.2%
C#Cc1ccc2c(c1)C(c1ccccc1F)=N[C@@H](C)c1c(C(=O)OC3CC3)ncn1-2 [5g, (S)-Cyclopropyl-8-ethynyl-6-(2-fluorophenyl)-4-methyl-4H-benzo[f]imidazo[1,5-a][1,4]diazepine-3-carboxyl-ate]	85.1 ± 3.8				35.8 ± 3.3 µM		% remaining in HLM ([1]; after 10, 20, and 30 minutes in HLM): less than 5%; Microsomal stability (HLM) % remaining [1, 5]: < 5.0^a %; Microsomal stability (HLM) Half-life [1, 5]: < 5^a min; Microsomal stability (MLM) % remaining [2, 4]: 11.0 ± 0.2^d %; Microsomal stability (MLM) Half-life [2, 4]: 19 ± 2^d min
C#Cc1ccc2c(c1)C(c1ccccc1F)=N[C@@H](C)c1c(C(=O)OCCC)ncn1-2 [5b, (S)-Propyl-8-ethynyl-6-(2-fluorophenyl)-4-methyl-4H-benzo[f]imidazo[1,5-a][1,4]diazepine-3-carboxylate]	56.3 ± 4.0	< 0.0833		0.4	53.2 ± 4.4 µM		remaining at 1 h [2, 4]: 12 ± 0.2%
C#Cc1ccc2c(c1)C(c1ccccc1F)=N[C@@H](C)c1c(C(=O)NC3CC3)ncn1-2 [8c, (S)-N-Cyclopropyl-8-ethynyl-6-(2-fluorophenyl)-4-methyl-4H-benzo[f]imidazo[1,5-a][1,4]diazepine-3-carbox-amide]	93.5 ± 5.7				63.8 ± 3.0 µM		Microsomal stability (HLM) % remaining [1, 4]: 89.0 ± 0.4^d %; Microsomal stability (HLM) Half-life [1, 4]: 1625 ± 803^d min; Microsomal stability (MLM) % remaining [2, 4]: 72.0 ± 0.3^d %; Microsomal stability (MLM) Half-life [2, 4]: 320 ± 34^d min
C#Cc1ccc2c(c1)C(c1ccccc1F)=N[C@@H](C)c1c(C(=O)NC)ncn1-2 [8a, (S)-8-Ethynyl-6-(2-fluorophenyl)-N,4-dimethyl-4H-benzo[f]imidazo[1,5-a][1,4]diazepine-3-carboxamide]			92 ± 0.3			86 ± 0.2	
C#Cc1ccc2c(c1)C(c1ccccc1F)=N[C@@H](C)c1c(C(=O)NCC)ncn1-2 [8b, (S)-N-Ethyl-8-ethynyl-6-(2-fluorophenyl)-4-methyl-4H-benzo[f]imidazo[1,5-a][1,4]diazepine-3-carboxamide]	65.4 ± 7.3	33 ± 0.833	> 92	32.7 ± 0.767	95.5 ± 12.6 µM	> 92	
C#Cc1ccc2c(c1)C(c1ccccc1F)=N[C@@H](C)c1c(C(=O)OC(C)C)ncn1-2 [5c, (S)-Isopropyl-8-ethynyl-6-(2-fluorophenyl)-4-methyl-4H-benzo[f]imidazo[1,5-a][1,4]diazepine-3-carboxylate]	39.9 ± 2.8	0.95 ± 0.0333		3.78 ± 0.267	48.9 ± 4.4 µM		remaining at 1 h [1, 4]: 47 ± 0.2%; remaining at 1 h [2, 4]: 83 ± 0.1%
C#Cc1ccc2c(c1)C(c1ccccc1F)=N[C@@H](C)c1c(C(=O)OCC(F)(F)F)ncn1-2 [5f, (S)-2,2,2-Trifluoroethyl-8-ethynyl-6-(2-fluorophenyl)-4-methyl-4H-benzo[f]imidazo[1,5-a][1,4]diazepine-3-carboxylate]	>400	< 0.0833		< 0.0833	138 µM and 138.1 ± 31.8 µM		
C#Cc1ccc2c(c1)C(c1ccccc1F)=N[C@@H](C)c1c(C(=O)OC(C)(C)CC)ncn1-2 [5e, (S)-tert-Pentyl-8-ethynyl-6-(2-fluorophenyl)-4-methyl-4H-benzo[f]imidazo[1,5-a][1,4]diazepine-3-carboxylate]	17.1 ± 1.4				17.2 ± 1.6 µM		
C#Cc1ccc2c(c1)C(c1ccccc1F)=N[C@@H](C)c1c(C#N)ncn1-2 [compound 10, (S)-8-Ethynyl-6-(2-fluorophenyl)-4-methyl-4H-benzo[f]imidazo[1,5-a][1,4]diazepine-3-carbonitrile]	57.1 ± 5.6	0.683 ± 0.0833	9 ± 0.3	0.967 ± 0.1	81.6 ± 6.7 µM	16	Microsomal stability (MLM) % remaining ([2]; after 2 hr): 17.0 ± 0.6%
C#Cc1ccc2c(c1)C(c1ccccc1F)=N[C@@H](C)c1c(C(=O)OC)ncn1-2 [5a, (S)-Methyl-8-ethynyl-6-(2-fluorophenyl)-4-methyl-4H-benzo[f]imidazo[1,5-a][1,4]diazepine-3-carboxylate]		1.98 ± 0.35		3.6 ± 0.467	68.2 ± 4.3 µM	62 ± 0.5	remaining at 1 h [1, 4]: 43 ± 0.4%
COC(=O)c1ncn2c1[C@H](C)N=C(c1ccccc1F)c1cc(Br)ccc1-2 [4a, (S)-Methyl-8-bromo-6-(2-fluorophenyl)-4-methyl-4H-benzo[f]imidazo[1,5-a][1,4]diazepine-3-carboxylate]		0.167 ± 0.0167		1.93 ± 0.217	98.5 ± 7.9 µM	41 ± 0.6	remaining at 1 h [1, 4]: 2 ± 0.3%
